From patent US10781211B2, “Spirocycle compounds and methods of making and using same” (Lundbeck La Jolla Research Center, Inc., priority 2016, dated 2020)

Assays:
[1] = biological target: T1, FAAH (Mus musculus (Mouse), UniProt O08914); assay: Mouse brain proteomes from inhibitor treated mice (oral gavage, sacrifice 4 h after administration, ABPP analysis), FAAH; type: in vivo; details: 5 mg/kg oral gavage
Procedure, shortened: (§1)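 Percent inhibition in brain tissue measured by ABPP 4 h after a single oral gavage dose (5 mg/kg) to wild-type C57Bl/6J mice; vehicle was, for example, PEG400/Ethanol/PBS at 7/2/1.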

[2] = biological target: T2, MAGL (Mus musculus (Mouse), UniProt O35678); assay: Mouse brain proteomes from inhibitor treated mice (oral gavage, sacrifice 4 h after administration, ABPP analysis); type: in vivo; details: 5 mg/kg oral gavage
Procedure, shortened: as §1

[3] = biological target: T2, MAGL; assay: In vitro competitive activity-based protein profiling (mouse brain membrane proteome), MAGL band; type: biochemical; details: for inhibition at 1 µM: read-out: MAGL % Inh 1 μM (mouse)
Method: (§2) In Vitro Competitive Activity-Based Protein Profiling.
(§3) Proteomes (mouse brain membrane fraction or cell lysates) (50 μL, 1.0 mg/mL total protein concentration) were preincubated with varying concentrations of inhibitors at 37° C. After 30 min, FP-Rh (1.0 μL, 50 μM in DMSO) was added and the mixture was incubated for another 30 min at 37° C. Reactions were quenched with SDS loading buffer (50 μL-4X) and run on SDS-PAGE.

[4] = biological target: T3, ABHD6 (Mus musculus (Mouse), UniProt Q8R2Y0); assay: Mouse brain proteomes from inhibitor treated mice (oral gavage, sacrifice 4 h after administration, ABPP analysis), ABHD6; type: in vivo; details: 5 mg/kg oral gavage
Procedure, shortened: as §1

[5] = biological target: T1, FAAH; assay: In vitro competitive activity-based protein profiling (mouse brain membrane proteome), FAAH band; type: biochemical; details: for inhibition at 1 µM: read-out: FAAH % Inh 1 μM (mouse)
Method: as §2
as §3, with “SDS-PAGE. Following gel imaging, serine hydrolase activity was determined by measuring fluorescent intensity of gel bands corresponding to MAGL, ABHD6 and FAAH using ImageJ 1.43 u software.” for “SDS-PAGE.”

[6] = biological target: T3, ABHD6; assay: In vitro competitive activity-based protein profiling (mouse brain membrane proteome), ABHD6 band; type: biochemical; details: read-out: ABHD6 % Inh 1 μM (mouse)
Method: as §2
as §3, with “SDS-PAGE. Following gel imaging, serine hydrolase activity was determined by measuring fluorescent intensity of gel bands corresponding to MAGL, ABHD6 and FAAH using ImageJ 1.43 u software.” for “SDS-PAGE.”

[7] = biological target: MAGL (Homo sapiens (Human), UniProt Q99685); assay: In vitro competitive activity-based protein profiling (human prefrontal cortex or cell membrane fractions; hMAGL expressed in HEK293T cells); type: biochemical; details: human proteome
Method: In Vitro Competitive Activity-Based Protein Profiling (Human).
Proteomes (human prefrontal cortex or cell membrane fractions) (50 μL, 1.0-2.0 mg/mL total protein concentration) were preincubated with varying concentrations of inhibitors at 37° C. After 30 min, FP-Rh or JW912 (1.0 μL, 50 μM in DMSO) was added and the mixture was incubated for another 30 min at room temperature. Reactions were quenched with SDS loading buffer (15 μL-4X) and run on SDS-PAGE.
Recombinant Expression of Human MAGL in HEK293T Cells.
Cell lysates were diluted with mock proteomes for use in competitive ABPP experiments.

T3 sequence (Q8R2Y0 whole entry): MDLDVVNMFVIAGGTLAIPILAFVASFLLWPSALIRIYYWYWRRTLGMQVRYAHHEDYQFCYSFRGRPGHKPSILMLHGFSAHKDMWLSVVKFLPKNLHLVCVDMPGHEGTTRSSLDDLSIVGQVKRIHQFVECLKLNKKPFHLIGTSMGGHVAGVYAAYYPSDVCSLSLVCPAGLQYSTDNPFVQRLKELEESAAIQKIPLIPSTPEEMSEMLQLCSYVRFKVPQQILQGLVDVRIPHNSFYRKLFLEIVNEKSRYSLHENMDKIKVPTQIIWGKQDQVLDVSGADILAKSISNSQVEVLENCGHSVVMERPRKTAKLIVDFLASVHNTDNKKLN
T1 sequence (O08914 whole entry): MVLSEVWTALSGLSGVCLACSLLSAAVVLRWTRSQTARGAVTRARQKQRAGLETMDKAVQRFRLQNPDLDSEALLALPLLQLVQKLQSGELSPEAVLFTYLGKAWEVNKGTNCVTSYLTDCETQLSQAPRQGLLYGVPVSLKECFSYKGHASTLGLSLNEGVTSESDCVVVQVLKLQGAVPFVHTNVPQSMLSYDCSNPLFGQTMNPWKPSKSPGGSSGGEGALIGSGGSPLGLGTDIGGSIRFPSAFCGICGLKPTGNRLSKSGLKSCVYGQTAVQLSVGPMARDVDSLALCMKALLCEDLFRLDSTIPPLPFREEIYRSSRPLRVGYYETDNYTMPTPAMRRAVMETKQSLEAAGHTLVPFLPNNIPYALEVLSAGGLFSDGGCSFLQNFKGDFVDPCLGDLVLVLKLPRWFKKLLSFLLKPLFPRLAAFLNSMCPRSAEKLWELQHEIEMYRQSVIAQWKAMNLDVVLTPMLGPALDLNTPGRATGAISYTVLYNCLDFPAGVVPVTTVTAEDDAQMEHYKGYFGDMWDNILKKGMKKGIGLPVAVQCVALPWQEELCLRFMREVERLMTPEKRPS
T2 sequence (O35678 whole entry): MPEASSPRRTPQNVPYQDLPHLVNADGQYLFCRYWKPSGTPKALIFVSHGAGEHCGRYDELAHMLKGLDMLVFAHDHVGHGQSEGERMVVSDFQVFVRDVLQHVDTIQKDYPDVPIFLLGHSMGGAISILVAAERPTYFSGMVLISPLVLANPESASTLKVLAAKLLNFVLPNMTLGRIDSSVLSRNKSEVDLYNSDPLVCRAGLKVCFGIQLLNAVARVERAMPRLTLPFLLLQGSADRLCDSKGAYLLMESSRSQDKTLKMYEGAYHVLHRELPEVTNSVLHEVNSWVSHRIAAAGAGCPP
MAGL (Homo sapiens (Human), UniProt Q99685), sequence (Q99685 whole entry): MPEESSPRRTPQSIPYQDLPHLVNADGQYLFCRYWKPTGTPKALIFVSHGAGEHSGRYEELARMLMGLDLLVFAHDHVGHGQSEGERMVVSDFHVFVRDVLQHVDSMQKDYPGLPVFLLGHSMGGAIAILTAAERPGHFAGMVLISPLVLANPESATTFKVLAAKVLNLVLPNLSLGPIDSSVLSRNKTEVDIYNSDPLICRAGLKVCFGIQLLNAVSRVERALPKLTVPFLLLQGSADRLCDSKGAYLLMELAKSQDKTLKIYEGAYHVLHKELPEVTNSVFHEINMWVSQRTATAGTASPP

FAAH % Inh 5 mg/kg (mouse) [1] | MAGL % Inh 5 mg/kg (mouse) [2] | IC50 [3] [nM] | ABHD6 % Inh 5 mg/kg (mouse) [4] | IC50 [5] [nM] | inhibition at 1 µM [6] [%] | inhibition at 1 µM [3] [%] | IC50 [7] [nM] | inhibition at 1 µM [5] [%] | SMILES
# (# is < 25%) | ### (### is ≥ 75%) | < 100 | ### (### is ≥ 75%) | > 1000 | – | – | – | – | CC(=O)N1CCCc2cccc(CN3CCC4(CCN(C(=O)OC(C(F)(F)F)C(F)(F)F)CC4)C3)c21 [Example 70, 1,1,1,3,3,3-Hexafluoropropan-2-yl 2-((1-acetyl-1,2,3,4-tetrahydroquinolin-8-yl)methyl)-2,8-diazaspiro[4.5]decane-8-carboxylate]
# (# is < 25%) | ### (### is ≥ 75%) | – | # (# is < 25%) | – | < 25 | > 75 | < 100 | < 25 | O=C(O)C1CCCCN1c1cc(CN2CCCC23CCN(C(=O)OC(C(F)(F)F)C(F)(F)F)CC3)cc(C(F)(F)F)c1 (stereo not drawn) [Example 226]
– | – | – | – | – | < 25 | > 75 | < 100 | < 25 | CC1(C(=O)O)CCN(c2cc(CN3CCCC34CCN(C(=O)OC(C(F)(F)F)C(F)(F)F)CC4)cc(C(F)(F)F)c2)C1 (stereo not drawn) [Example 231]
– | – | – | – | – | < 25 | – | – | < 25 | O=C(O)C1CCN(c2cc(F)ccc2CN2CCCC23CCN(C(=O)OC(C(F)(F)F)C(F)(F)F)CC3)CC1 [Example 235]
# (# is < 25%) | ### (### is ≥ 75%) | – | # (# is < 25%) | – | – | – | – | – | O=C(O)C1CCN(c2cc(OC(F)(F)F)ccc2CN2CCCC23CCN(C(=O)OC(C(F)(F)F)C(F)(F)F)CC3)CC1 [Example 248]
# (# is < 25%) | # (# is < 25%) | – | # (# is < 25%) | – | – | – | – | – | CC1(C(=O)O)CN(c2cc(C(F)(F)F)ccc2CN2CCC3(CCN(C(=O)OC(C(F)(F)F)C(F)(F)F)CC3)C2)CCO1 (stereo not drawn) [Example 256]
# (# is < 25%) | # (# is < 25%) | – | # (# is < 25%) | – | – | – | – | – | CS(=O)(=O)C1CCN(c2cc(C(F)(F)F)ccc2CN2CCCC23CCN(C(=O)OC(C(F)(F)F)C(F)(F)F)CC3)CC1 [Example 267]
# (# is < 25%) | ### (### is ≥ 75%) | – | # (# is < 25%) | – | – | – | – | – | O=C(O)C1CCN(Cc2cc(Cl)cc(CN3CCCC34CCN(C(=O)OC(C(F)(F)F)C(F)(F)F)CC4)c2)C1 (stereo not drawn) [Example 272]
# (# is < 25%) | ### (### is ≥ 75%) | – | # (# is < 25%) | – | – | – | – | – | O=C(O)[C@H]1CCCCN1c1cc(CN2CCCC23CCN(C(=O)OC(C(F)(F)F)C(F)(F)F)CC3)cc(C(F)(F)F)c1 [Example 274]
# (# is < 25%) | # (# is < 25%) | – | # (# is < 25%) | – | – | – | – | – | O=C(O)C1CCN(C(=O)c2cc(C(F)(F)F)ccc2CN2CCCC23CCN(C(=O)OC(C(F)(F)F)C(F)(F)F)CC3)CC1 [Example 281]
